Experimental data: PubChem BioAssay AID1963870 (Molecular Pharmacology Branch, DTP, NCI, 2024)

Test system: 292921-168-R-J2-PDC KRAS tumor spheroid viability
Test: Anticancer human tumor 292921-168-R-J2-PDC patient-derived pancreatic carcinoma cell line growth inhibition [KRAS2]
Conditions: spheroids with HUVEC and MSC; for IC50: curve of first compound; for viability, T/C: stronger effect = lower value
Method in brief: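 KRAS-mutant tumor cells were grown as spheroids with HUVEC endothelial cells and human MSCs as stroma. Targeted agents were tested alone and with KRAS pathway inhibitors. Doses started at or near clinical Cmax, or 10 microM, descending half-log.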

[1] = second compound 0.1 µM, first compound 0.0316 µM
[2] = second compound 0.1 µM, first compound 0.1 µM
[3] = second compound 0.1 µM, first compound 0.316 µM
[4] = second compound 0.1 µM, first compound 1 µM
[5] = second compound 0.1 µM, first compound 3.16 µM
[6] = second compound 0.1 µM, first compound 10 µM
[7] = second compound 0.316 µM, first compound 0.0316 µM
[8] = second compound 0.316 µM, first compound 0.1 µM
[9] = second compound 0.316 µM, first compound 0.316 µM
[10] = second compound 0.316 µM, first compound 1 µM
[11] = second compound 0.316 µM, first compound 3.16 µM
[12] = second compound 0.316 µM, first compound 10 µM
[13] = second compound 1 µM, first compound 0.0316 µM
[14] = second compound 1 µM, first compound 0.1 µM
[15] = second compound 1 µM, first compound 0.316 µM
[16] = second compound 1 µM, first compound 1 µM
[17] = second compound 1 µM, first compound 3.16 µM
[18] = second compound 1 µM, first compound 10 µM
[19] = second compound 3.16 µM, first compound 0.0316 µM
[20] = second compound 3.16 µM, first compound 0.1 µM
[21] = second compound 3.16 µM, first compound 0.316 µM
[22] = second compound 3.16 µM, first compound 1 µM
[23] = second compound 3.16 µM, first compound 3.16 µM
[24] = second compound 3.16 µM, first compound 10 µM
[25] = second compound 10 µM, first compound 0.0316 µM
[26] = second compound 10 µM, first compound 0.1 µM
[27] = second compound 10 µM, first compound 0.316 µM
[28] = second compound 10 µM, first compound 1 µM
[29] = second compound 10 µM, first compound 3.16 µM
[30] = second compound 10 µM, first compound 10 µM
[31] = second compound 0.0316 µM, first compound 0.01 µM
[32] = second compound 0.0316 µM, first compound 0.0316 µM
[33] = second compound 0.0316 µM, first compound 0.1 µM
[34] = second compound 0.1 µM, first compound 0.01 µM
[35] = second compound 0.316 µM, first compound 0.01 µM
[36] = second compound 1 µM, first compound 0.01 µM
[37] = second compound 3.16 µM, first compound 0.01 µM
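Also: drug exposure lasted seven days after spheroids formed for three days.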
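For viability, T/C in this document: percent of DMSO vehicle control viability which is 100%.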

Question: How did the IC50 (second compound 0.1 µM) turn out when `CC1OCC2(CCN(c3cnc(Sc4ccnc(N)c4Cl)c(N)n3)CC2)C1N` (stereo not given) + C=CC(=O)N1CCN(c2nc(=O)n(-c3c(C)ccnc3C(C)C)c3nc(-c4c(O)cccc4F)c(F)cc23)C(C)C1 was run?
Answer: 1140 nM

Question: And the IC50 (second compound 0.316 µM)?
Answer: 1920 nM

Question: What about the IC50 (second compound 1 µM) of the same molecule?
Answer: 2060 nM

Question: And the IC50 (second compound 3.16 µM)?
Answer: 218 nM

Question: And the IC50 (second compound 10 µM)?
Answer: < 31.6 nM

Question: What about the viability, T/C [1] of the same molecule?
Answer: 96.8%

Question: And the viability, T/C [2]?
Answer: 83.1%

Question: What about the viability, T/C [3] of the same molecule?
Answer: 64.5%

Question: What about the viability, T/C [4] of the same molecule?
Answer: 51%

Question: What about the viability, T/C [5] of the same molecule?
Answer: 42%

Question: And the viability, T/C [6]?
Answer: 33.4%

Question: And the viability, T/C [7]?
Answer: 108%

Question: What about the viability, T/C [8] of the same molecule?
Answer: 82.5%

Question: And the viability, T/C [9]?
Answer: 69.2%

Question: And the viability, T/C [10]?
Answer: 59.9%

Question: What about the viability, T/C [11] of the same molecule?
Answer: 45.6%

Question: And the viability, T/C [12]?
Answer: 34.2%

Question: And the viability, T/C [13]?
Answer: 104%

Question: What about the viability, T/C [14] of the same molecule?
Answer: 89.9%

Question: And the viability, T/C [15]?
Answer: 73.5%

Question: And the viability, T/C [16]?
Answer: 55.5%

Question: What about the viability, T/C [17] of the same molecule?
Answer: 46.6%

Question: And the viability, T/C [18]?
Answer: 41.1%

Question: What about the viability, T/C [19] of the same molecule?
Answer: 65.2%

Question: What about the viability, T/C [20] of the same molecule?
Answer: 57.6%

Question: And the viability, T/C [21]?
Answer: 45.9%

Question: What about the viability, T/C [22] of the same molecule?
Answer: 39%

Question: What about the viability, T/C [23] of the same molecule?
Answer: 36.7%

Question: And the viability, T/C [24]?
Answer: 29.6%

Question: What about the viability, T/C [25] of the same molecule?
Answer: 17.8%

Question: And the viability, T/C [26]?
Answer: 15.9%

Question: What about the viability, T/C [27] of the same molecule?
Answer: 16.3%

Question: And the viability, T/C [28]?
Answer: 15.5%

Question: What about the viability, T/C [29] of the same molecule?
Answer: 15.1%

Question: What about the viability, T/C [30] of the same molecule?
Answer: 14.4%

Question: Which results are given for `Cn1nccc1Nc1nccc(-c2cc3c(s2)C(C)(C)N(CCN2CCOCC2)C3=O)n1` + C=CC(=O)N1CCN(c2nc(=O)n(-c3c(C)ccnc3C(C)C)c3nc(-c4c(O)cccc4F)c(F)cc23)C(C)C1?
Answer: IC50 (second compound 0.1 µM): 122 nM; IC50 (second compound 0.316 µM): 131 nM; IC50 (second compound 1 µM): 111 nM; IC50 (second compound 3.16 µM): 77.7 nM; IC50 (second compound 10 µM): < 31.6 nM; viability, T/C [1]: 95.1%; viability, T/C [2]: 55.6%; viability, T/C [3]: 23.7%; viability, T/C [4]: 12.3%; viability, T/C [5]: 11.2%; viability, T/C [6]: 11.1%; viability, T/C [7]: 107%; viability, T/C [8]: 58.5%; viability, T/C [9]: 21.9%; viability, T/C [10]: 13.7%; viability, T/C [11]: 12.4%; viability, T/C [12]: 12.6%; viability, T/C [13]: 115%; viability, T/C [14]: 52.7%; viability, T/C [15]: 22.5%; viability, T/C [16]: 15.2%; viability, T/C [17]: 12.5%; viability, T/C [18]: 14.4%; viability, T/C [19]: 76.6%; viability, T/C [20]: 42.5%; viability, T/C [21]: 19.2%; viability, T/C [22]: 14.3%; viability, T/C [23]: 13.8%; viability, T/C [24]: 17.2%; viability, T/C [25]: 25.2%; viability, T/C [26]: 18%; viability, T/C [27]: 14.6%; viability, T/C [28]: 14.4%; viability, T/C [29]: 15.1%; viability, T/C [30]: 19.5%

Question: Which IC50 (second compound 0.0316 µM) does the source give for `CC(=O)OC12COC1CC(O)C1(C)C(=O)C(O)C3=C(C)C(OC(=O)C(O)C(NC(=O)OC(C)(C)C)c4ccccc4)CC(O)(C(OC(=O)c4ccccc4)C21)C3(C)C` (stereo not given) + C=CC(=O)N1CCN(c2nc(OCC3CCCN3C)nc3c2CCN(c2cccc4cccc(C)c24)C3)CC1CC#N here?
Answer: < 10 nM

Question: What about the IC50 (second compound 0.1 µM) of the same molecule?
Answer: < 10 nM

Question: What about the IC50 (second compound 0.316 µM) of the same molecule?
Answer: < 10 nM

Question: What about the IC50 (second compound 1 µM) of the same molecule?
Answer: < 10 nM

Question: And the IC50 (second compound 3.16 µM)?
Answer: < 10 nM

Question: What about the viability, T/C [31] of the same molecule?
Answer: 12.8%

Question: And the viability, T/C [32]?
Answer: 14.4%

Question: What about the viability, T/C [33] of the same molecule?
Answer: 10.5%

Question: And the viability, T/C (second compound 0.0316 µM, first compound 0.316 µM)?
Answer: 11.3%

Question: And the viability, T/C (second compound 0.0316 µM, first compound 1 µM)?
Answer: 13.3%

Question: And the viability, T/C (second compound 0.0316 µM, first compound 3.16 µM)?
Answer: 17.1%

Question: What about the viability, T/C [34] of the same molecule?
Answer: 13.8%

Question: And the viability, T/C [1]?
Answer: 12%

Question: And the viability, T/C [2]?
Answer: 9.84%

Question: And the viability, T/C [3]?
Answer: 9.08%

Question: What about the viability, T/C [4] of the same molecule?
Answer: 12.5%

Question: What about the viability, T/C [5] of the same molecule?
Answer: 14.9%

Question: And the viability, T/C [35]?
Answer: 11.8%

Question: And the viability, T/C [7]?
Answer: 9.96%

Question: What about the viability, T/C [8] of the same molecule?
Answer: 8.56%

Question: And the viability, T/C [9]?
Answer: 9.75%

Question: What about the viability, T/C [10] of the same molecule?
Answer: 15.3%

Question: What about the viability, T/C [11] of the same molecule?
Answer: 14.3%

Question: And the viability, T/C [36]?
Answer: 8.08%

Question: What about the viability, T/C [13] of the same molecule?
Answer: 6.89%

Question: What about the viability, T/C [14] of the same molecule?
Answer: 6.48%

Question: What about the viability, T/C [15] of the same molecule?
Answer: 7.06%

Question: And the viability, T/C [16]?
Answer: 6.74%

Question: And the viability, T/C [17]?
Answer: 7.91%

Question: And the viability, T/C [37]?
Answer: 15.1%

Question: What about the viability, T/C [19] of the same molecule?
Answer: 13.7%

Question: And the viability, T/C [20]?
Answer: 11.1%

Question: And the viability, T/C [21]?
Answer: 11.6%

Question: And the viability, T/C [22]?
Answer: 14%

Question: And the viability, T/C [23]?
Answer: 18.2%

Question: `CN(C)C/C=C/C(=O)Nc1cc2c(Nc3ccc(F)c(Cl)c3)ncnc2cc1O[C@H]1CCOC1` + C=CC(=O)N1CCN(c2nc(OCC3CCCN3C)nc3c2CCN(c2cccc4cccc(C)c24)C3)CC1CC#N was tested. Which IC50 (second compound 0.0316 µM) did it give?
Answer: > 100 nM

Question: And the IC50 (second compound 0.1 µM)?
Answer: > 100 nM

Question: And the IC50 (second compound 0.316 µM)?
Answer: > 100 nM

Question: And the IC50 (second compound 1 µM)?
Answer: 9.38 nM

Question: What about the IC50 (second compound 3.16 µM) of the same molecule?
Answer: < 0.316 nM

Question: What about the viability, T/C (second compound 0.0316 µM, first compound 0.000316 µM) of the same molecule?
Answer: 110%

Question: What about the viability, T/C (second compound 0.0316 µM, first compound 0.001 µM) of the same molecule?
Answer: 97.6%

Question: What about the viability, T/C (second compound 0.0316 µM, first compound 0.00316 µM) of the same molecule?
Answer: 89.9%

Question: What about the viability, T/C [31] of the same molecule?
Answer: 85.3%

Question: And the viability, T/C [32]?
Answer: 76.9%

Question: And the viability, T/C [33]?
Answer: 71.9%

Question: And the viability, T/C (second compound 0.1 µM, first compound 0.000316 µM)?
Answer: 99.2%

Question: What about the viability, T/C (second compound 0.1 µM, first compound 0.001 µM) of the same molecule?
Answer: 98.1%

Question: What about the viability, T/C (second compound 0.1 µM, first compound 0.00316 µM) of the same molecule?
Answer: 85.3%

Question: And the viability, T/C [34]?
Answer: 84.8%

Question: And the viability, T/C [1]?
Answer: 71.4%

Question: What about the viability, T/C [2] of the same molecule?
Answer: 68.2%

Question: What about the viability, T/C (second compound 0.316 µM, first compound 0.000316 µM) of the same molecule?
Answer: 77.3%

Question: What about the viability, T/C (second compound 0.316 µM, first compound 0.001 µM) of the same molecule?
Answer: 85.3%

Question: What about the viability, T/C (second compound 0.316 µM, first compound 0.00316 µM) of the same molecule?
Answer: 64.7%

Question: What about the viability, T/C [35] of the same molecule?
Answer: 60.5%

Question: What about the viability, T/C [7] of the same molecule?
Answer: 61.6%

Question: What about the viability, T/C [8] of the same molecule?
Answer: 49.3%

Question: And the viability, T/C (second compound 1 µM, first compound 0.000316 µM)?
Answer: 56.8%

Question: And the viability, T/C (second compound 1 µM, first compound 0.001 µM)?
Answer: 60%

Question: What about the viability, T/C (second compound 1 µM, first compound 0.00316 µM) of the same molecule?
Answer: 50.3%

Question: And the viability, T/C [36]?
Answer: 49.5%

Question: And the viability, T/C [13]?
Answer: 45.5%

Question: And the viability, T/C [14]?
Answer: 34.8%

Question: And the viability, T/C (second compound 3.16 µM, first compound 0.000316 µM)?
Answer: 0.73%

Question: What about the viability, T/C (second compound 3.16 µM, first compound 0.001 µM) of the same molecule?
Answer: 1.26%

Question: What about the viability, T/C (second compound 3.16 µM, first compound 0.00316 µM) of the same molecule?
Answer: 0.25%

Question: And the viability, T/C [37]?
Answer: 0.27%

Question: What about the viability, T/C [19] of the same molecule?
Answer: 0.43%

Question: And the viability, T/C [20]?
Answer: 0.2%
